Test results as given in ChEMBL document CHEMBL5634134, “Design, synthesis, and biological evaluation of novel 4,4'-bipyridine derivatives acting as CDK9-Cyclin T1 protein-protein interaction inhibitors against triple-negative breast cancer” (Eur J Med Chem, 2023).
pIC50: −log10 of the molar value. Active and inactive are the calls of the source. The calls are words filed in the database; no cut-off is given here.

Legend:
[1] = system: HeLa; assay: cells; conditions: Homo sapiens, 72 h
[2] = system: A549; assay: cells; conditions: Homo sapiens, A549, 72 h
[3] = system: MDA-MB-231; assay: cells; conditions: Homo sapiens, MDA-MB-231, 72 h
[4] = Cytotoxicity against human L02 cells assessed as inhibition of cell growth incubated for 72 hrs by MTT assay; type: toxicity, cell-based
[5] = system: MDA-MB-231; assay: Antiproliferative activity against human MDA-MB-231 cells assessed as inhibition of cell growth incubated for 48 hrs by MTT assay; type: functional, cell-based; conditions: MDA-MB-231, 48 h
[6] = system: MDA-MB-231; assay: Inhibition of RNA Polymerase II CTD phosphorylation at ser2 residue in human MDA-MB-231 cells at 1 uM incubated for 24 hrs by Western blotting analysis; type: cell-based
[7] = Cytotoxicity against HK-2 cells assessed as inhibition of cell growth incubated for 72 hrs by MTT assay; type: toxicity, cell-based; conditions: human
[8] = system: MDA-MB-231; assay: Induction of apoptosis in human MDA-MB-231 cells assessed as necrotic cells at 1000 nM incubated for 72 hrs by Annexin V-FITC/PI staining based flow cytometry analysis (reference value: 0.49 %); type: functional
[9] = target: CDK9/cyclin T1 (Homo sapiens) (UniProt O60563+P50750); assay: Inhibition of CDK9/Cyclin T1 protein-protein interaction in human MDA-MB-231 cells at 3 uM incubated for 8 hrs by co-immunoprecipitation assay; type: cell-based
[10] = system: 4T1; assay: cells; conditions: Mus musculus, 4T1, 72 h
[11] = target: CDK9/cyclin T1 (Homo sapiens, UniProt P50750); assay: Inhibition of human CDK9/Cyclin T1 in presence of ATP by radiometric kinase assay; type: protein-complex assay
CDK9/cyclin T1, sequence (O60563 whole entry): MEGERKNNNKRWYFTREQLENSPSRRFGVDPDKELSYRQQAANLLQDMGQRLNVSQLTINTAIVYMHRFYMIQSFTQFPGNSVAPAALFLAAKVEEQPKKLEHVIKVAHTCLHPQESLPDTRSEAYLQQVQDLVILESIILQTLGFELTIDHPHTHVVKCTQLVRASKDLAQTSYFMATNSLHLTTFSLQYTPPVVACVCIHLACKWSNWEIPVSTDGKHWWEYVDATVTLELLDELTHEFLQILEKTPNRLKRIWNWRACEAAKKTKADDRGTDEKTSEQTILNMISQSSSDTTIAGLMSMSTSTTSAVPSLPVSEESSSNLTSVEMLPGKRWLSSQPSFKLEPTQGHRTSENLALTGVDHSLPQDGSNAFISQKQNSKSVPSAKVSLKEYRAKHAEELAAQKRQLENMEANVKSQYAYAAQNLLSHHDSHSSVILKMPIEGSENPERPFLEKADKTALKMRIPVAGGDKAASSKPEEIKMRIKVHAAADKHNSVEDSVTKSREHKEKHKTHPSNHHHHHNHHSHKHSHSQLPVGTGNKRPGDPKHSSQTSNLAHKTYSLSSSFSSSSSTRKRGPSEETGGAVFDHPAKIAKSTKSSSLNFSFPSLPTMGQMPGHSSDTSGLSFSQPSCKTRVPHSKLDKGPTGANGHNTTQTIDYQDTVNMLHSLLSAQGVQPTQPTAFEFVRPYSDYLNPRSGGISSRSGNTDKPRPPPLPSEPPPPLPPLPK
CDK9/cyclin T1, sequence (P50750 whole entry): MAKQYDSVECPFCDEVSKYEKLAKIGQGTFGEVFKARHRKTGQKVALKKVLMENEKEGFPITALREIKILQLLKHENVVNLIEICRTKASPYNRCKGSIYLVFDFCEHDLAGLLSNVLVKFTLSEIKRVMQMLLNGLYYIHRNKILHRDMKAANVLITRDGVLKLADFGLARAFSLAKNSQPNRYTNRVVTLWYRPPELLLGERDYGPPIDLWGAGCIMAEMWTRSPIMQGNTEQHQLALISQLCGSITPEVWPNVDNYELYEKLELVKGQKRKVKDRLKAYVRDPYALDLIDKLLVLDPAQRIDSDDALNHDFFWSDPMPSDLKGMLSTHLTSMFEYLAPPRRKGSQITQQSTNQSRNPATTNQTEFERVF

[12] = Selectivity index, ratio of IC50 for the cytotoxicity against human LO2 cells to IC50 for antiproliferative activity against human MDA-MB-231 cells; type: toxicity, cell-based; conditions: LO2 cells versus MDA-MB-231 cells, read-out: Ratio IC50
[13] = Cytotoxicity against human MRC5 cells assessed as inhibition of cell growth incubated for 72 hrs by MTT assay; type: toxicity, cell-based
[14] = system: BT-549; assay: cells; conditions: Homo sapiens, BT-549, 72 h
[15] = system: HepG2; assay: cells; conditions: Homo sapiens, HepG2, 72 h
[16] = system: MDA-MB-231; assay: Induction of apoptosis in human MDA-MB-231 cells assessed as late apoptotic cells at 1000 nM incubated for 72 hrs by Annexin V-FITC/PI staining based flow cytometry analysis (reference value: 4.04 %); type: functional
[17] = system: MDA-MB-231; assay: Induction of apoptosis in human MDA-MB-231 cells assessed as viable cells at 1000 nM incubated for 72 hrs by Annexin V-FITC/PI staining based flow cytometry analysis (reference value: 94.81 %); type: functional; conditions: read-out: Activity
[18] = system: Hs-578T; assay: cells; conditions: Homo sapiens, 72 h
[19] = Cytotoxicity against human MCF-10A cells assessed as inhibition of cell growth incubated for 72 hrs by MTT assay; type: toxicity, cell-based
[20] = system: MDA-MB-231; assay: Induction of apoptosis in human MDA-MB-231 cells assessed as early apoptotic cells at 1000 nM incubated for 72 hrs by Annexin V-FITC/PI staining based flow cytometry analysis (reference value: 0.66 %); type: functional
[21] = system: MDA-MB-231; assay: Inhibition of colony formation in human MDA-MB-231 cells at 2 uM incubated for 10 days by crystal violet staining based analysis; type: functional, cell-based; conditions: time 10.0 day
[22] = system: MDA-MB-231; assay: Antiproliferative activity against human MDA-MB-231 cells assessed as decrease in sphere size by measuring sphere diameter at 10 uM incubated for 10 days by confocal laser scanning microscopy (reference value: 508.27 micrometer); type: functional; conditions: time 10 day

Cc1cccc(C(=O)Nc2cc(-c3ccnc(N4CCC(C)CC4)c3)ccn2)c1
pIC50 [1]: < 5.00
pIC50 [2]: < 5.00
pIC50 [3]: 5.50
IC50 at 72 h [4]: 6370 nM

CC(=O)O[C@H]1C(=O)[C@@]2(C)[C@H]([C@H](OC(=O)c3ccccc3)[C@]3(O)C[C@H](OC(=O)[C@H](O)[C@@H](NC(=O)c4ccccc4)c4ccccc4)C(C)=C1C3(C)C)[C@]1(OC(C)=O)CO[C@@H]1C[C@@H]2O [PACLITAXEL]
pIC50 [5]: > 8.30

Cc1ccc(C(=O)Nc2cc(-c3ccnc(N4CCC(O)CC4)c3)ccn2)cc1
pIC50 [1]: 5.48
inhibition [6]: Active
pIC50 [2]: 5.62
pIC50 [3]: 6.58
IC50 at 72 h [4]: 875 nM

CC1CCCN(c2cc(-c3ccnc(NC(=O)c4ccc(F)cc4)c3)ccn2)C1 (stereo unspecified)
pIC50 [1]: 6.32
pIC50 [2]: 5.36
pIC50 [3]: 6.56
IC50 at 72 h [4]: 1230 nM

O=C(Nc1cc(-c2ccnc(N3CCCC(CO)C3)c2)c(Cl)cn1)c1ccc(F)cc1 (stereo unspecified)
pIC50 [1]: 6.56
pIC50 [2]: 5.73
pIC50 [3]: 6.23
IC50 at 72 h [4]: > 10000 nM

COc1ccc(C(=O)Nc2cc(-c3ccnc(N(C)CCO)c3)ccn2)cc1
pIC50 [1]: 6.28
pIC50 [2]: < 5.00
pIC50 [3]: 6.44
IC50 at 72 h [4]: 1120 nM

COc1ccc(CCC(=O)Nc2cc(-c3ccnc(N4CCC(O)CC4)c3)ccn2)cc1
pIC50 [1]: < 5.00
inhibition [6]: Active
pIC50 [2]: < 5.00
pIC50 [3]: < 5.00
IC50 at 72 h [4]: > 10000 nM

COc1ccc(C(=O)Nc2cc(-c3ccnc(N4CCC(N)CC4)c3)ccn2)cc1
pIC50 [1]: < 5.00
pIC50 [2]: 5.62
pIC50 [3]: 5.94
IC50 at 72 h [4]: 1380 nM

O=C(Nc1cc(-c2ccnc(N3CCC(O)CC3)c2)ccn1)c1ccccc1Cl
pIC50 [1]: < 5.00
pIC50 [2]: < 5.00
pIC50 [3]: < 5.00
IC50 at 72 h [4]: > 10000 nM

N[C@H]1CC[C@H](Nc2cc(-c3cccc(NCc4cccc(F)c4)n3)c(Cl)cn2)CC1
IC50 at 72 h [7]: 187 nM
Activity [8]: 0.2%
inhibition [9]: inactive
pIC50 [10]: 6.94
pIC50 [11]: > 9.40
selectivity ratio [12]: 3
IC50 at 72 h [13]: 197 nM
pIC50 [1]: 6.82
pIC50 [14]: 7.28
pIC50 [15]: 6.33
Activity [16]: 42.9%
pIC50 [2]: 5.79
viability at 1 µM [17]: 19.3%
pIC50 [18]: 7.13
IC50 at 72 h [19]: 108 nM
Activity [20]: 37.6%
pIC50 [3]: 7.10
IC50 at 72 h [4]: 278 nM

COc1ccc(CC(=O)Nc2cc(-c3ccnc(N4CCC(O)CC4)c3)ccn2)cc1
pIC50 [1]: < 5.00
inhibition [6]: Active
pIC50 [2]: < 5.00
pIC50 [3]: 5.10
IC50 at 72 h [4]: > 10000 nM

CC1CCN(c2cc(-c3ccnc(NC(=O)c4ccc(F)cc4)c3)ccn2)CC1
pIC50 [1]: < 5.00
pIC50 [2]: < 5.00
pIC50 [3]: < 5.00
IC50 at 72 h [4]: > 10000 nM

COc1cc(C(=O)Nc2cc(-c3ccnc(N4CCC(O)CC4)c3)ccn2)cc(OC)c1OC
pIC50 [1]: 5.24
inhibition [6]: Active
pIC50 [2]: 5.25
pIC50 [3]: 5.76
IC50 at 72 h [4]: > 10000 nM

O=C(Nc1cc(-c2ccnc(N3CCC(O)CC3)c2)ccn1)c1ccc(C(F)(F)F)cc1
pIC50 [1]: 6.59
inhibition [6]: Active
pIC50 [2]: 5.78
pIC50 [3]: 6.95
IC50 at 72 h [4]: 1960 nM

O=c1[nH]cc(F)c(=O)[nH]1 [FLUOROURACIL]
pIC50 [5]: 4.86

CC1CCN(c2cc(-c3ccnc(NC(=O)c4ccc(C(F)(F)F)cc4)c3)ccn2)CC1
pIC50 [1]: 5.11
pIC50 [2]: < 5.00
pIC50 [3]: 5.50
IC50 at 72 h [4]: > 10000 nM

CCN1CCN(c2cc(-c3ccnc(NC(=O)c4ccc(OC)cc4)c3)ccn2)CC1
pIC50 [1]: 5.49
pIC50 [2]: 5.80
pIC50 [3]: 6.00
IC50 at 72 h [4]: 6890 nM

Cc1ccccc1C(=O)Nc1cc(-c2ccnc(N3CCC(O)CC3)c2)ccn1
pIC50 [1]: < 5.00
pIC50 [2]: < 5.00
pIC50 [3]: < 5.00
IC50 at 72 h [4]: > 10000 nM

COc1cccc2c1C(=O)c1c(O)c3c(c(O)c1C2=O)C[C@@](O)(C(=O)CO)C[C@@H]3O[C@H]1C[C@H](N)[C@H](O)[C@H](C)O1 [DOXORUBICIN]
pIC50 [5]: 6.82

COc1ccc(C(=O)Nc2cc(-c3ccnc(N4CCC(C)CC4)c3)ccn2)cc1
pIC50 [1]: 5.80
pIC50 [2]: 5.57
pIC50 [3]: 6.74
IC50 at 72 h [4]: 4170 nM

Cc1sc2c(c1C)C(c1ccc(Cl)cc1)=N[C@@H](CC(=O)OC(C)(C)C)c1nnc(C)n1-2
pIC50 [5]: 5.50

Cc1ccc(C(=O)Nc2cc(-c3ccnc(N4CCC(C)CC4)c3)ccn2)cc1
pIC50 [1]: 5.41
pIC50 [2]: < 5.00
pIC50 [3]: 5.89
IC50 at 72 h [4]: > 10000 nM

Cc1ccc(C(=O)Nc2cc(-c3ccnc(N4CCCC(O)C4)c3)ccn2)cc1 (stereo unspecified)
pIC50 [1]: 5.70
pIC50 [2]: < 5.00
pIC50 [3]: 6.14
IC50 at 72 h [4]: 591 nM

O=C(c1cc(Cc2n[nH]c(=O)c3ccccc23)ccc1F)N1CCN(C(=O)C2CC2)CC1 [OLAPARIB]
inhibition [21]: inactive
Activity [22]: 472.83 um
pIC50 [5]: < 4.30

COc1ccc(CNc2cc(-c3ccnc(N4CCC(O)CC4)c3)ccn2)cc1
pIC50 [1]: < 5.00
inhibition [6]: Active
pIC50 [2]: < 5.00
pIC50 [3]: 5.49
IC50 at 72 h [4]: > 10000 nM

CCOc1ccc(C(=O)Nc2cc(-c3ccnc(N4CCC(O)CC4)c3)ccn2)cc1
selectivity ratio [12]: 1
pIC50 [1]: 5.87
inhibition [6]: Active
pIC50 [2]: 5.27
pIC50 [3]: 6.99
IC50 at 72 h [4]: 132 nM

COc1cccc(C(=O)Nc2cc(-c3ccnc(N4CCC(O)CC4)c3)ccn2)c1
pIC50 [1]: < 5.00
inhibition [6]: Active
pIC50 [2]: 5.54
pIC50 [3]: 5.41
IC50 at 72 h [4]: 2980 nM

COc1ccc(C(=O)Nc2cc(-c3ccnc(N4CCCC(CO)C4)c3)ccn2)cc1 (stereo unspecified)
selectivity ratio [12]: 34
pIC50 [1]: 6.57
pIC50 [2]: 5.61
pIC50 [3]: 7.12
IC50 at 72 h [4]: 2600 nM

COc1ccc(C(=O)Nc2cc(-c3ccnc(N4CCN(C)CC4)c3)ccn2)cc1
pIC50 [1]: < 5.00
pIC50 [2]: 5.39
pIC50 [3]: 6.31
IC50 at 72 h [4]: > 10000 nM

O=P1(N(CCCl)CCCl)NCCCO1 (stereo unspecified) [CYCLOPHOSPHAMIDE ANHYDROUS]
pIC50 [5]: < 4.30

O=C(Nc1cc(-c2ccnc(N3CCC(O)CC3)c2)ccn1)c1cc(Cl)cc(Cl)c1
pIC50 [1]: < 5.00
pIC50 [2]: < 5.00
pIC50 [3]: < 5.00
IC50 at 72 h [4]: > 10000 nM

COc1ccc(C(=O)Nc2cc(-c3ccnc(N4CCC(NC(=O)OC(C)(C)C)CC4)c3)ccn2)cc1
pIC50 [1]: < 5.00
pIC50 [2]: 5.48
pIC50 [3]: 6.70
IC50 at 72 h [4]: 538 nM
